Experiments:
Experiment in all cases: relative viability (nuclei count vs DMSO), 5 days (fraction); higher = more cells survive
[1] = compound: COC1=C(C=C(C=C1)C2=CC3=NC=CN3C(=N2)NC4=C(C=CC=N4)C(=O)N)OC [BAY61-3606]
In short: (§1)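 After an overnight hold at 37 °C, lung cancer cell lines in 1536-well plates were pinned with five library-drug doses (not always all listed), each √10 from the next, on vehicle-anchored plates. The cells stayed 5 days without fresh medium, then a one-step fix, permeabilisation and Hoechst stain preceded 4× imaging and MetaXpress nuclear counts. A plate passed only with control CV under 25% and at least one doubling. Viability is the median, over plates, of treated-well nuclei relative to vehicle-well nuclei.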

[2] = compound: COc1cccc2c1C(=O)c1c(O)c3c(c(O)c1C2=O)C[C@@](O)(C(=O)CO)C[C@@H]3O[C@H]1C[C@H](N)[C@H](O)[C@H](C)O1 [Doxorubicin]
In short: as §1

[3] = compound: COc1cccc2c1C(=O)c1c(O)c3c(c(O)c1C2=O)C[C@@](O)(C(=O)CO)C[C@@H]3O[C@H]1C[C@H](N)[C@H](O)[C@H](C)O1 [Doxorubicin] + Nc1nc2[nH]cc(CCc3ccc(C(=O)N[C@@H](CCC(=O)O)C(=O)O)cc3)c2c(=O)[nH]1 [Pemetrexed] (partner 0.2 µM)
In short: (§2)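 A single step with final 0.05% Triton X-100, 1% formaldehyde and 1 ug/ml Hoechst fixed the cells and stained nuclei 5 days after treatment. Lung cancer cell lines in 1536-well plates had been treated by pin tool the day after seeding with one drug alone or a fixed anchor-drug dose plus five library-drug doses (not always all listed) in √10 steps, and nuclei were counted on 4× images. Relative viability is the ratio of nuclei in treated wells to nuclei in vehicle wells, taken as the median of duplicate plates.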

[4] = compound: COC1=C(C=C(C=C1)C2=CC3=NC=CN3C(=N2)NC4=C(C=CC=N4)C(=O)N)OC [BAY61-3606] + Cc1nc(NC(=O)N2CCC[C@H]2C(N)=O)sc1-c1ccnc(C(C)(C)C(F)(F)F)c1 [Alpelisib] (partner 2 µM)
In short: as §2

Cell Line | relative viability ([1]; 0.02 µM) | relative viability ([1]; 0.06325 µM) | relative viability ([1]; 0.2 µM) | relative viability ([1]; 0.6325 µM) | relative viability ([1]; 2 µM) | relative viability ([2]; 0.001 µM) | relative viability ([2]; 0.003162 µM) | relative viability ([2]; 0.01 µM) | relative viability ([2]; 0.03162 µM) | relative viability ([2]; 0.1 µM) | relative viability ([3]; first compound 0.001 µM) | relative viability ([3]; first compound 0.003162 µM) | relative viability ([3]; first compound 0.01 µM) | relative viability ([3]; first compound 0.03162 µM) | relative viability ([3]; first compound 0.1 µM) | relative viability ([4]; first compound 0.02 µM) | relative viability ([4]; first compound 0.06325 µM) | relative viability ([4]; first compound 0.2 µM) | relative viability ([4]; first compound 0.6325 µM) | relative viability ([4]; first compound 2 µM)
NCI-H1355 | 1.08 | 0.916 | 0.937 | 0.961 | 0.882 | 0.888 | 1.04 | 1.01 | 0.989 | 1.01 | 1 | 1.02 | 1 | 1.01 | 1.04 | 0.944 | 0.811 | 0.791 | 0.713 | 0.534
NCI-H2228 | 1.18 | 0.922 | 0.944 | 1.06 | 0.792 | 0.859 | 1 | 0.822 | 0.606 | 0.339 | 0.335 | 0.344 | 0.32 | 0.278 | 0.244 | 0.702 | 0.654 | 0.782 | 0.736 | 0.561
NCI-H596 | 0.96 | 0.96 | 1.07 | 1.15 | 0.86 | 0.97 | 1.16 | 1.08 | 0.853 | 0.948 | 0.499 | 0.505 | 0.526 | 0.473 | 0.486 | 0.428 | 0.482 | 0.108 | 0.479 | 0.407
SK-MES-1 | 1.02 | 0.994 | 0.974 | 1.06 | 0.891 | 0.997 | 1.06 | 0.906 | 0.594 | 0.542 | 0.926 | 0.899 | 0.872 | 0.291 | 0.234 | 1.02 | 0.968 | 1 | 0.986 | 0.7
EPLC-272H | 1.02 | 1.05 | 0.894 | 0.873 | 0.729 | 0.84 | 0.949 | 0.932 | 0.792 | 0.964 | 0.365 | 0.372 | 0.377 | 0.322 | 0.298 | 1.03 | 0.935 | 1 | 0.986 | 0.905
HCC-366 | 0.988 | 1.03 | 1.01 | 0.96 | 0.903 | 0.909 | 0.991 | 1.02 | 0.959 | 0.587 | 0.301 | 0.18 | 0.171 | 0.201 | 0.161 | 0.449 | 0.343 | 0.369 | 0.388 | 0.212
PC-14 | 1.07 | 1.04 | 0.916 | 0.992 | 0.877 | 0.974 | 1.05 | 1.01 | 0.789 | 0.52 | 0.139 | 0.135 | 0.118 | 0.0995 | 0.0845 | 0.996 | 0.995 | 0.929 | 1.06 | 0.841
SW 1573 | 1.04 | 1.03 | 0.905 | 1 | 0.659 | 0.876 | 0.914 | 0.539 | 0.364 | 0.292 | 0.869 | 0.807 | 0.263 | 0.144 | 0.105 | 0.838 | 0.679 | 0.88 | 0.822 | 0.451
COR-L 105 | 0.932 | 0.892 | 0.951 | 0.852 | 0.568 | 0.951 | 0.853 | 0.827 | 0.706 | 0.503 | 0.87 | 1.2 | 1.05 | 0.808 | 0.618 | 0.942 | 0.988 | 0.76 | 1.02 | 0.788
NCI-H322M | 1.04 | 0.919 | 1 | 0.921 | 0.843 | 1 | 0.887 | 0.976 | 0.904 | 0.568 | 0.682 | 0.542 | 0.66 | 0.548 | 0.512 | 0.9 | 0.792 | 0.852 | 0.898 | 0.841
NCI-H1395 | 1.02 | 0.811 | 0.826 | 0.895 | 0.811 | 0.919 | 1.05 | 1.02 | 0.891 | 0.629 | 0.887 | 1.02 | 1.08 | 0.7 | 0.537 | 1.16 | 0.957 | 1.07 | 1.04 | 0.97
PC-3 [JPC-3] | 1.04 | 1 | 1 | 1.02 | 0.939 | 1.08 | 1.05 | 1.04 | 0.998 | 0.982 | 1.2 | 1.12 | 1.15 | 1.05 | 0.663 | 1.05 | 1.08 | 1.04 | 1.05 | 0.878
NCI-H1975 | 0.958 | 0.964 | 0.913 | 0.874 | 0.668 | 1.02 | 0.985 | 0.951 | 0.778 | 0.518 | 0.268 | 0.29 | 0.277 | 0.306 | 0.225 | 0.667 | 0.645 | 0.62 | 0.507 | 0.295
